± gives the expanded uncertainty stated by the source.
Key:
[1] = relative permittivity at various frequencies (dimensionless); settings: 293.15 K; 100 kPa; Liquid; Frequency=0.01 MHz; Coaxial cylinder capacitor
[2] = relative permittivity at various frequencies (dimensionless); wn = mass fraction of the nth substance listed; settings: 293.15 K, 100 kPa, Liquid, Frequency=0.01 MHz, Coaxial cylinder capacitor

SMILES | relative permittivity ([2]; w2 = 0) | relative permittivity [1] | relative permittivity ([2]; w1 = 1) | other results
C1CCCCC1 [cyclohexane] |  | 2.02 ± 0.12 |  | 
ClC(Cl)(Cl)Cl [tetrachloromethane] |  | 2.23 ± 0.13 |  | 
CC#N [acetonitrile] + c1ccccc1 |  |  | 37.7 ± 1.7 | relative permittivity ([2]; w1 = 0.25): 10.21 ± 0.49; relative permittivity ([2]; w1 = 0.5): 19.8 ± 0.93; relative permittivity ([2]; w1 = 0.75): 28.5 ± 1.3
CC#N [acetonitrile] |  | 37.7 ± 1.7 |  | 
c1ccccc1 [benzene] |  | 2.29 ± 0.13 |  | 
C1CCCCC1 [cyclohexane] + c1ccccc1 |  |  | 2.02 ± 0.12 | relative permittivity ([2]; w1 = 0.25): 2.2 ± 0.13; relative permittivity ([2]; w1 = 0.5): 2.13 ± 0.13; relative permittivity ([2]; w1 = 0.75): 2.07 ± 0.12
CC#N [acetonitrile] + ClC(Cl)(Cl)Cl |  |  | 37.7 ± 1.7 | 
ClC(Cl)(Cl)Cl [tetrachloromethane] + CC#N | 2.23 ± 0.13 |  |  | relative permittivity ([2]; w2 = 0.25): 14.96 ± 0.71; relative permittivity ([2]; w2 = 0.5): 25.7 ± 1.2; relative permittivity ([2]; w2 = 0.75): 34.2 ± 1.6

The next lines start with results.

relative permittivity ([2]; w2 = 0) | SMILES | relative permittivity [1] | relative permittivity ([2]; w1 = 1) | other results
2.29 ± 0.13 | c1ccccc1 [benzene] + C1CCCCC1 |  |  | 
2.29 ± 0.13 | c1ccccc1 [benzene] + CC#N |  |  | 

Reference: the NIST ThermoML archive (doi:10.1016/j.tca.2019.03.028)
